Converted amounts (≈) assume the structure as drawn.
Columns and labels:
[1] = system: L1210; experiment: Cytotoxicity against […] cells assessed as reversal of multi drug resistance at 1 uM; assay type: functional, cell-based; details: Mus musculus
[2] = system: HCT-116; experiment: Cytotoxicity against human HCT-116 cells assessed as reversal of multi drug resistance at 1 uM; assay type: functional, cell-based
[3] = system: L1210; experiment: Cytotoxicity against mouse L1210 cells assessed as reduction in cell viability; assay type: functional, cell-based
[4] = system: HCT-116/VM46; experiment: cells; details: Homo sapiens
[5] = system: Candida albicans; experiment: […] activity against Candida albicans assessed as zone of inhibition at 20 mg/ml; assay type: functional; details: read-out: IZ
[6] = Antioxidant activity assessed as FRAP radical activity by FRAP assay; assay type: functional
[7] = system: HepG2; experiment: Anticancer activity against human HepG2 cells by MTT assay; assay type: functional, cell-based
[8] = Antioxidant activity assessed as DPPH radical scavenging activity; assay type: functional
[9] = system: MES-SA; experiment: Cytotoxicity against human MES-SA cells assessed as reduction in cell viability incubated for 72 hrs by MTT assay; assay type: functional, cell-based
[10] = system: HCT-116; experiment: Inhibition of CKII in human HCT-116 cells at 50 uM assessed as inhibition; assay type: cell-based
[11] = system: MCF7; experiment: Inhibition of CKII in human MCF7 cells at 50 uM assessed as inhibition; assay type: cell-based
[12] = system: Candida albicans; experiment: Antifungal activity against Candida albicans assessed as reduction in fungal growth; assay type: functional
[13] = system: Staphylococcus aureus; experiment: Antibacterial activity against Staphylococcus aureus ATCC 29213 assessed as reduction in bacterial growth; assay type: functional
[14] = system: Escherichia coli; experiment: Antibacterial activity against Escherichia coli assessed as bacterial growth inhibition; assay type: functional
[15] = system: Escherichia coli; experiment: Antibacterial activity against Escherichia coli assessed as bacterial growth inhibition by broth dilution method; assay type: functional
[16] = system: H69AR; experiment: Cytotoxicity against human NCI-H69AR cells assessed as reduction in cell viability by SRB assay; assay type: functional, cell-based
[17] = system: HuCC-A1; experiment: Antiproliferative activity against human HuCC-A1 cells assessed as reduction in cell proliferation; assay type: functional, cell-based
[18] = system: RAW264.7; experiment: Anti-inflammatory activity against mouse RAW264.7 cells assessed as inhibition of LPS-induced NO production at 50 ug/ml relative to control; assay type: functional; design: scale not given: the % may be the effect or the level left; details: dose 50 µg/ml
[19] = system: MCF7; experiment: Antiproliferative activity against human MCF7 cells assessed as inhibition of cell proliferation measured after 96 hrs by SRB assay; assay type: functional, cell-based; details: MCF7, 96 h
[20] = system: Staphylococcus epidermidis; experiment: Antibacterial activity against Staphylococcus epidermidis assessed as reduction in bacterial growth; assay type: functional
[21] = target: Dual specificity tyrosine-phosphorylation-regulated kinase 1A (Homo sapiens, UniProt Q13627); experiment: Inhibition of DYRK1A (unknown origin)
[22] = system: HCT-116/VM46; experiment: Anticancer activity against Multi drug resistant human HCT-116/VM46 cells assessed as inhibition of cell growth; assay type: functional, cell-based
[23] = system: Salmonella enterica; experiment: Antibacterial activity against Salmonella enterica assessed as bacterial growth inhibition by broth dilution method; assay type: functional
[24] = system: HCT-15; experiment: Anticancer activity against human HCT-15 cells assessed as cell growth inhibition; assay type: functional, cell-based
[25] = system: Botrytis cinerea; experiment: Antifungal activity against Botrytis cinerea assessed as inhibition of fungal growth incubated for 24 hrs by standard broth dilution assay; assay type: functional, organism-based
[26] = system: Botrytis cinerea; experiment: Antifungal activity against Botrytis cinerea; assay type: functional, organism-based
[27] = system: Colletotrichum camelliae; experiment: Antifungal activity against Colletotrichum camelliae; assay type: functional, organism-based
[28] = Cytotoxicity against human HCC-S102 cells assessed as reduction in cell viability; assay type: functional, cell-based
[29] = Inhibition of wild type HIV-1 protease; design: species or system Human immunodeficiency virus
[30] = Cytotoxicity against human MRC5 cells assessed as reduction in cell viability measured after 72 hrs by MTT assay; assay type: toxicity, cell-based
[31] = system: Bacillus cereus; experiment: Antibacterial activity against Bacillus cereus assessed as zone of inhibition; assay type: functional
[32] = system: Klebsiella aerogenes; experiment: Antibacterial activity against Enterobacter aerogenes assessed as zone of inhibition; assay type: functional
[33] = system: Bacillus subtilis; experiment: Antibacterial activity against Bacillus subtilis assessed as zone of inhibition; assay type: functional
[34] = system: Staphylococcus aureus; experiment: Antibacterial activity against Staphylococcus aureus assessed as zone of inhibition; assay type: functional
[35] = system: Escherichia coli; experiment: Antibacterial activity against Escherichia coli assessed as zone of inhibition; assay type: functional
[36] = system: Pseudomonas aeruginosa; experiment: Antibacterial activity against Pseudomonas aeruginosa assessed as zone of inhibition; assay type: functional
[37] = system: Aspergillus niger; experiment: Antifungal activity against Aspergillus niger assessed as zone of inhibition; assay type: functional
[38] = system: Penicillium italicum; experiment: Antifungal activity against Penicillium italicum assessed as zone of inhibition; assay type: functional
[39] = system: Fusarium oxysporum; experiment: Antifungal activity against Fusarium oxysporum assessed as zone of inhibition; assay type: functional
[40] = Inhibition of HIV-1 integrase; design: species or system Human immunodeficiency virus 1

O=c1oc2cc(O)c(O)cc2c2c(-c3ccc(O)c(O)c3)cn(CCc3ccc(O)c(O)c3)c12
IC50 [1]: 10 µM | IC50 [2]: 12 µM | IC50 [3]: 10 µM | IC50 [4]: 60 µM

CCOC(=O)c1nnc2c3c(=O)oc4ccccc4c3nn2c1N
zone of inhibition at 20000 µg/mL [5]: 10 mm

O=c1oc2ccccc2c2c1C(c1ccc(Br)cc1O)SCCN2 (stereo in doubt; 203c)
IC50 [6]: 0.186 µM | IC50 [7]: 290 µM | IC50 [8]: 290 µM

O=[Se](O)O [SODIUM SELENITE]
IC50 [9]: 29 µM

O=c1oc2cc(O)ccc2c2oc3cc(O)ccc3c12
inhibition [10]: 30% | inhibition [11]: 50%

COc1cccc2cc(-c3ccc4c(=O)oc5c(C)cccc5c4n3)c(=O)oc12
MIC [12]: 1000 µg/mL (≈ 2590 µM)

CC(=O)c1c(O)c2c(cc(O)c3c(=O)oc4c5cccc(C)c5oc(=O)c4c32)oc1=O
MIC [13]: 150 µM (≈ 63 µg/mL) | MIC [14]: 100 µM (≈ 42 µg/mL) | MIC [15]: 100 µg/mL (≈ 238 µM)

COc1cc([C@@H]2c3cc4c(cc3[C@@H](O[C@@H]3O[C@@H]5CO[C@@H](C)O[C@H]5[C@H](O)[C@H]3O)[C@H]3COC(=O)[C@H]23)OCO4)cc(OC)c1O [ETOPOSIDE]
IC50 [16]: 45.9 µM | IC50 [17]: 6.8 µM

O=c1oc2ccccc2c2c1C(c1ccc(Br)cc1O)SCCN2 (stereo in doubt; 200)
IC50 [7]: 58 µM

GENTAMICIN
MIC [15]: 5 µg/mL

O=C(O)Cc1ccccc1Nc1c(Cl)cccc1Cl [DICLOFENAC]
Activity [18]: 62%

O=c1oc2ccccc2c2[se]c(CN3CCOCC3)c(Nc3ccncc3)c12
IC50 [19]: 18 µM

COc1cccc2c1OC(=O)C1C(C)=Nc3[nH]n(-c4cc(Cl)ccc4Cl)c(=O)c3C21 (configuration not stated)
MIC [20]: 25 µM

Nc1cc(=O)[nH]c2c3c(=O)oc4ccccc4c3nn12
zone of inhibition at 20000 µg/mL [5]: 10 mm

O=c1oc2ccc(O)cc2c2c1[nH]c1ccc(O)cc12
IC50 [21]: 0.067 µM

O=c1oc2ccc3ccccc3c2cc1-c1ccc2c(=O)oc3ccc(Cl)cc3c2n1
MIC [13]: 62.5 µM (≈ 26.6 µg/mL)

COc1cc(-c2c3n(c4c(=O)oc5cc(O)c(OC)cc5c24)CCc2c-3cc(OC)c(OC)c2O)ccc1O
IC50 [16]: 4.3 µM | IC50 [17]: 3.4 µM

COc1ccc(CCn2cc(-c3ccc(OC)c(OC)c3)c3c4cc(OC)c(OC)cc4oc(=O)c32)cc1OC
IC50 [1]: 50 µM | IC50 [22]: 40 µM | IC50 [4]: 40 µM

CCc1c(C)c(=O)oc2c1c(=O)oc1ccccc12
MIC [23]: 50 µM (≈ 12.8 µg/mL)

O=c1c(O)c(-c2ccc(O)c(O)c2)oc2cc(O)cc(O)c12 [QUERCETIN]
IC50 [6]: 53900 µM

CC(=O)/C=C1\c2c(c3ccccc3oc2=O)OC1(c1ccccc1)N(C)C (configuration not stated)
IC50 [24]: 8 µM

Cc1oc2c(c1C)c(=O)oc1cc(OC(C)C)ccc12
EC50 [25]: 1.72 µM | EC50 [26]: 1.72 µg/mL (≈ 6.32 µM) | EC50 [27]: 6.02 µg/mL (≈ 22.1 µM)

COc1cc(-c2c3c4cc(OC)c(O)cc4oc(=O)c3n3ccc4cc(O)c(OC)cc4c23)ccc1O [LAMELLARIN D]
IC50 [28]: 3.2 µM

COc1ccc(-c2c3c4cc(OC)c(O)cc4oc(=O)c3n3ccc4cc(O)c(OC)cc4c23)cc1O
IC50 [29]: 8 µM

COc1cc2c(cc1O)oc(=O)c1c2c(-c2ccc(OC)c(OC)c2)c2c3cc(OC)c(O)cc3ccn21
IC50 at 72 h [30]: > 97 µM

N=c1c2c(=O)oc3ccccc3c2ccn1-c1ccccn1
MIC [20]: 50 µg/mL

O=c1[nH]cnc2c1C(c1ccc(Br)cc1)c1c(c3ccccc3oc1=O)O2 (configuration not stated)
inhibition zone (IZ) [31]: 16 mm | inhibition zone (IZ) [32]: 12 mm | inhibition zone (IZ) [33]: 18 mm | inhibition zone (IZ) [34]: 22 mm | inhibition zone (IZ) [35]: 13 mm | inhibition zone (IZ) [36]: 10 mm | inhibition zone (IZ) [37]: 21 mm | inhibition zone (IZ) [38]: 12 mm | inhibition zone (IZ) [39]: 20 mm

Cc1cccc2c1oc(=O)c1cc(NC(=O)c3ccccc3)c(=O)oc12
MIC [14]: 105 µM (≈ 36.5 µg/mL)

COc1ccc(-c2c3c4cc(OC)c(OS(=O)(=O)O)cc4oc(=O)c3n3ccc4cc(OC)c(OC)cc4c23)cc1O
IC50 [40]: 8 µM

O=c1oc2cc(O)ccc2c2c1[nH]c1ccc(O)cc12
IC50 [21]: 0.0003 µM
